In ChEMBL document CHEMBL5104179, “Discovery and Structural Characterization of Small Molecule Binders of the Human CTLH E3 Ligase Subunit GID4” (J Med Chem, 2022) one finds ΔTm and IC50 data, which are given here for 41 compounds.

One test has as its target T1, Glucose-induced degradation protein 4 homolog (Homo sapiens) (UniProt Q8IVV7).
T1 sequence (whole entry): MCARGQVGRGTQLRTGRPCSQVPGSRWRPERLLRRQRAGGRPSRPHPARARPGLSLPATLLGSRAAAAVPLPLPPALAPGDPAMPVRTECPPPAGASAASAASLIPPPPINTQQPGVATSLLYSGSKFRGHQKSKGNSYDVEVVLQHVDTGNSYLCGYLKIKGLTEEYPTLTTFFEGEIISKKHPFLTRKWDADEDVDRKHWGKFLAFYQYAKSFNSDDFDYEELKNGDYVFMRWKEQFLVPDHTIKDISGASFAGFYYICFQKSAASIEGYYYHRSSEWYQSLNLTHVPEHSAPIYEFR
The following applies: HEK293, dose 50.0 µM, time 10.0 min.
`CNC(=O)[C@H](CCc1ccccc1)NC(=O)[C@H](NC(=O)CNCc1ccc(OC)cc1OC)c1cccs1`: the ΔTm (as a rule, the shift of the melting midpoint relative to a reference) came to 3.8 °C.

The target in a further test is T1, Glucose-induced degradation protein 4 homolog (Homo sapiens).
Conditions: not given
`O=[N+]([O-])c1ccccc1C1NCCc2sccc21` (configuration not stated): the thermal shift (ΔTm) turned out to be 4.1 °C.
The same measure, in the same setting: the figure for `CC1SC(Nc2ccc(F)cc2)=NC1=O` (configuration not stated) is 0.6 °C.
Still for that read-out and setting: the figure for `COc1ccc2c(c1)CCCC2c1ccccc1` (configuration not stated) is 6.4 °C.
Same read-out and setting: for `C[C@H](N)c1ccc(Cl)cc1` the value was above 1 °C; for `N#Cc1cccc(C2NCCc3sccc32)c1` (configuration not stated), 3.9 °C; for `CNC(=O)C1c2ccccc2CN1C(=O)[C@@H](Cc1c(C)[nH]c2ccccc12)NC(=O)CNCCOc1ccc(C)cc1` (some centres not stated), 0.1 °C.
Consider `COc1cccc2c1CCNC2c1ccccc1` (configuration not stated), for which the ΔTm was found to be 4.4 °C.
On the same count and under the same terms, for `Clc1ccc(CNCc2cccnc2)cc1` the value was above 1 °C.
On the same count and under the same terms, for `OCc1ccc(C2NCCc3sccc32)cc1` (configuration not stated) the value was 4.4 °C; for `N#Cc1ccc(C2NCCc3sccc32)cc1` (configuration not stated), 2 °C; for `COc1cccc(C2NCCc3sccc32)c1` (configuration not stated), 7.6 °C.
Still for that read-out and setting: the figure for `CC(=O)c1cccc(NC2=NCC(C)S2)c1` (configuration not stated) is 3.2 °C; for `Nc1ccc(C2NCCc3sccc32)cc1` (configuration not stated) it is 7.1 °C; for `Nc1ccccc1C1NCCc2sccc21` (configuration not stated) it is 2.8 °C.
On to `c1ccc(NC2=NCCS2)cc1`, for which the ΔTm was 2.5 °C.
With `CC1CN=C(Nc2ccc(N(C)C)cc2)S1` (configuration not stated), the ΔTm amounted to 3.1 °C.
On to `CNC(=O)[C@H](CC1CCCCC1)NC(=O)[C@@H](NC(=O)[C@H]1NC[C@@H]1c1ccccc1)c1ccsc1`, for which the ΔTm was 4.5 °C.
Same read-out and setting: the figure for `Brc1ccc(C2NCCc3sccc32)cc1` (configuration not stated) is 4.2 °C; for `NCc1ccccc1Oc1ccccc1` it is above 1 °C.
On the same count and under the same terms, the figure for `FC(F)(F)c1ccccc1C1NCCc2sccc21` (configuration not stated) is 5.3 °C; for `c1ccc(C2NCCc3sccc32)cc1` (configuration not stated) it is 7.9 °C.
The same measure, in the same setting: for `Fc1ccc(C2NCCc3sccc32)cc1` (configuration not stated) the value was 3.8 °C.
Regarding `Clc1ccc(C2NCCc3sccc32)cc1` (configuration not stated), the ΔTm stood at 5.1 °C.
The same measure, in the same setting: for `COc1ccc(C2NCCc3sccc32)cc1` (racemic) the value was 4.5 °C; for `CC(=O)Oc1ccc(C2NCCc3sccc32)cc1` (configuration not stated), 3.3 °C.
Take `O=[N+]([O-])c1cccc(C2NCCc3sccc32)c1` (configuration not stated): the ΔTm was determined as 4.9 °C.
On the same count and under the same terms, the figure for `CC1CSC(Nc2cccc3ccccc23)=N1` (configuration not stated) is 2.5 °C; for `CC1CN=C(Nc2ccc(F)cc2F)S1` (configuration not stated) it is 0.7 °C.
On the same count and under the same terms, for `Oc1cccc(C2NCCc3sccc32)c1` (configuration not stated) the value was 6.1 °C; for `c1cc2c(s1)CCNC2`, 1.9 °C.
The same measure, in the same setting: for `CC1CN=C(Nc2ccc(F)cc2)S1` (racemic) the value was 3.2 °C; for `CNC(=O)[C@H](CCc1ccccc1)NC(=O)[C@H](NC(=O)CNCc1ccc(OC)cc1OC)c1cccs1`, 16 °C.
On to `FC(F)(F)c1ccc(C2NCCc3sccc32)cc1` (configuration not stated), for which the ΔTm was found to be 2.7 °C.
On the same count and under the same terms, for `Clc1ccccc1C1NCCc2sccc21` (configuration not stated) the value was 5 °C.
Same read-out and setting: for `O=C(O)c1ccc(-c2ccc(Cl)cc2)o1` the value was above 1 °C; for `CC(=O)c1ccc(NC2=NCC(C)S2)cc1` (configuration not stated), -0.1 °C; for `COc1ccc(NC2=NCC(C)S2)cc1` (configuration not stated), 3.1 °C.
Same read-out and setting: for `CC1(C)CN=C(Nc2ccc(F)cc2)S1` the value was 1.2 °C.
In the case of `c1cncc(C2NCCc3sccc32)c1` (configuration not stated), the ΔTm is 2.5 °C.
Same read-out and setting: for `CCOc1ccc(NC2=NCC(C)S2)cc1` (configuration not stated) the value was 0.8 °C.

The next test has as its target T2, Glucose-induced degradation protein 4 homolog (Homo sapiens, UniProt Q8IVV7).
T2 sequence (Q8IVV7 whole entry): T1 sequence (whole entry)
The test can be described thus: Inhibition of GID4 (124 to 289) (unknown origin) expressed in Escherichia coli BL21(DE3) using PGLWKS-FITC peptide by competitive-fluorescence polarization binding assay.
Conditions: not given
A general note: Fluorescence polarisation rises when a labelled molecule tumbles more slowly, as on binding a larger partner.
In the case of `CC1CN=C(Nc2cccc(F)c2)S1` (configuration not stated), the concentration for half-maximal inhibition (IC50) (commonly the midpoint of a concentration-inhibition curve) was determined as 264 µM.
